{"source": "patent US7648973B2", "about": "“2-methylene-1α,25-dihydroxy-19,21-dinorvitamin D3 analogs and uses thereof” (Wisconsin Alumni Research Foundation, priority 2006, dated 2010)", "key": {"[1]": {"target": "T1, full-length recombinant rat vitamin D receptor (Rattus norvegicus, UniProt P13053)", "T1 construct": "Full-length recombinant rat receptor was expressed in E. coli BL21(DE3) Codon Plus RIL cells; histidine tag (C); made in house; host or cells: E. coli BL21(DE3) Codon Plus RIL", "T1 sequence (P13053 1-423)": "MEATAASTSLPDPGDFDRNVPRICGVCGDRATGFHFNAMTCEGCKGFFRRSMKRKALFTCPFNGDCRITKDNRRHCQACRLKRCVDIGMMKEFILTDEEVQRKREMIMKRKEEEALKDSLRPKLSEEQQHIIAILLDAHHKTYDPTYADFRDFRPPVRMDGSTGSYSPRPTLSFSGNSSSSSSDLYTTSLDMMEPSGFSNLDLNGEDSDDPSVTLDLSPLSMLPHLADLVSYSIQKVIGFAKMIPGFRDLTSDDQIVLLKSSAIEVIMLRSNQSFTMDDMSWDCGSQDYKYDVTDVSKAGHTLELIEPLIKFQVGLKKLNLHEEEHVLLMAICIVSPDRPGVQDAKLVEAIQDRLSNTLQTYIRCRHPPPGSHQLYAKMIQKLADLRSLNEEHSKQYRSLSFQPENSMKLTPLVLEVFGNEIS", "experiment": "Vitamin D receptor binding, competition with [3H]-1,25-(OH)2-D3", "conditions": "compared with 1α,25-dihydroxyvitamin D3; FIG. 1", "protocol": "The first system was a nickel affinity resin that utilizes the C-terminal histidine tag on this protein. The protein that was eluted from this resin was further purified using ion exchange chromatography (S-Sepharose Fast Flow). Aliquots of the purified protein were quick frozen in liquid nitrogen and stored at −80° C. until use. For use in binding assays, the protein was diluted in TEDK50 (50 mM Tris, 1.5 mM EDTA, pH 7.4, 5 mM DTT, 150 mM KCl) with 0.1% Chaps detergent. The receptor protein and ligand concentration was optimized such that no more than 20% of the added radiolabeled ligand was bound to the receptor.\nThe following day, 100 mcl of hydroxylapatite slurry (50%) was added to each tube and mixed at 10-minute intervals for 30 minutes. The hydroxylapaptite was collected by centrifugation and then washed three times with Tris-EDTA buffer (50 mM Tris, 1.5 mM EDTA, pH 7.4) containing 0.5% Titron X-100. After the final wash, the pellets were transferred to scintillation vials containing 4 ml of Biosafe II scintillation cocktail, mixed and placed in a scintillation counter. Total binding was determined from the tubes containing only radiolabeled ligand."}, "HL-60 cells": {"test_system": "HL-60 cells", "experiment": "HL-60 differentiation (nitro blue tetrazolium reduction)", "format": "cell-based, human", "conditions": "compared with 1α,25-dihydroxyvitamin D3; FIG. 4", "protocol": "The study drugs were dissolved in ethanol and the concentrations determined using UV spectrophotometry. Serial dilutions were prepared so that a range of drug concentrations could be tested without changing the final concentration of ethanol (<0.2%) present in the cell cultures.\nHuman promyelocytic leukemia (HL60) cells were grown in RPMI-1640 medium containing 10% fetal bovine serum. The cells were incubated at 37° C. in the presence of 5% CO2.\nHL60 cells were plated at 1.2×10^5 cells/ml. Eighteen hours after plating, cells in duplicate were treated with drug. Four days later, the cells were harvested and a nitro blue tetrazolium reduction assay was performed (Collins et al., 1979; J. Exp. Med. 149:969-974). The percentage of differentiated cells was determined by counting a total of 200 cells and recording the number that contained intracellular black-blue formazan deposits. Verification of differentiation to monocytic cells was determined by measuring phagocytic activity (data not shown)."}, "[2]": {"test_system": "24-hydyroxylase (24Ohase) gene promoter in ROS 17/2.8 (bone) cells", "experiment": "In vitro transcription assay (luciferase reporter)", "format": "cell-based", "conditions": "compared with 1α,25-dihydroxyvitamin D3; FIG. 5", "protocol": "Transcription activity was measured in ROS 17/2.8 (bone) cells that were stably transfected with a 24-hydyroxylase (24Ohase) gene promoter upstream of a luciferase reporter gene (Arbour et al., 1998). Cells were given a range of doses. Sixteen hours after dosing the cells were harvested and luciferase activities were measured using a luminometer. (RLU=relative luciferase units)"}, "[3]": {"experiment": "Bone calcium mobilization (serum calcium)", "format": "in vivo, rat", "conditions": "at equimolar quantities or even at 27 times the dose of 1α,25-dihydroxyvitamin D3; ip, 4 consecutive days; FIG. 2", "protocol": "(§1) Male, weanling Sprague-Dawley rats were placed on Diet 11 (0.47% Ca) diet+AEK for one week followed by Diet 11 (0.02% Ca)+AEK for 3 weeks. The rats were then switched to a diet containing 0.47% Ca for one week followed by two weeks on a diet containing 0.02% Ca. Dose administration began during the last week on 0.02% calcium diet. Four consecutive ip doses were given approximately 24 hours apart. Twenty-four hours after the last dose, blood was collected from the severed neck and the concentration of serum calcium determined as a measure of bone calcium mobilization. The first 10 cm of the intestine was also collected for intestinal calcium transport analysis using the everted gut sac method. The everted gut sac assay was carried out as previously described by Martin and Deluca, Am. J. Physiol. 216, 1351 (1969); (DeLuca et al., U.S. Pat. No. 4,188,345), which are incorporated by reference as if fully set forth herein. Serum calcium was determined by atomic absorption spectrophotometry using a Perkin Elmer Model 3110 and by diluting the serum in 0.1% lanthanum chloride.\n(§2) The negative control material is prepared by volumetrically measuring ethanol (<5%) and propylene glycol, mixing, and then placing in storage at 2 to 8° C.\n(§3) The solution is mixed and then stored at 2 to 8° C. […]"}, "[4]": {"experiment": "Intestinal calcium transport (everted gut sac)", "format": "in vivo, rat", "conditions": "compared with 1α,25-dihydroxyvitamin D3; ip, 4 consecutive days; FIG. 3", "protocol": "as §1, §2, §3"}}, "note": "“Also recorded” adds a separate entry of the source."}
{"compound": "C=C1[C@H](O)CC(=C/C=C2\\CCC[C@]3(C)[C@@H](CCCCC(C)(C)O)CC[C@@H]23)C[C@H]1O", "note": "[TP-62, 2-methylene-1α,25-dihydroxy-19,21-dinorvitamin D3]", "values": [{"measurement": "binding to the recombinant vitamin D receptor", "setting": "[1]", "result": "comparably active when compared to 1α,25-dihydroxyvitamin D3; also recorded: relatively high binding"}, {"measurement": "differentiation of HL-60 cells", "setting": "HL-60 cells", "result": "more active than 1α,25-dihydroxyvitamin D3"}, {"measurement": "stimulating transcription of a reporter gene stably transfected in Ros17/2.8 (bone) cells", "setting": "[2]", "result": "equally active as 1α,25-dihydroxyvitamin D3"}, {"measurement": "bone calcium mobilization", "setting": "[3]", "result": "lesser activity than 1α,25-dihydroxyvitamin D3; also recorded: lesser ability to mobilize calcium from bone"}, {"measurement": "intestinal calcium transport activity", "setting": "[4]", "result": "greater or at least equal to 1α,25-dihydroxyvitamin D3"}]}
